Test results as given in US11046686B2, “Thiadiazole IRAK4 compounds” (Gilead Sciences, Inc., priority 2018, dated 2021).
pEC50, pIC50: −log10 of the molar value. Where two headings read alike, the source gives them in different places.

Legend:
[1] = system: TNFα; assay: IRAK4 Monocyte TNFα Cell Based Assay; set-up: species or system human; settings: read-out: EC50 MONO TNF HTRF
Summary of the method: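 TNFα release quantified by HTRF (cryptate/XL665 antibody pair, overnight at RT) after 1 h compound pre-incubation (0.1% DMSO) and 4 h LPS challenge at 50 pg/ml, 37 °C, 5,000 monocytes per well. Signal ratio normalised between unstimulated (0%) and stimulated (100%) controls.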

[2] = target: IRAK4 enzyme (Homo sapiens (Human), UniProt Q9NWZ3); assay: IRAK4 Biochemical Assay (TR-FRET, STK1 KinEASE)
Sequence of IRAK4 enzyme (Q9NWZ3 whole entry): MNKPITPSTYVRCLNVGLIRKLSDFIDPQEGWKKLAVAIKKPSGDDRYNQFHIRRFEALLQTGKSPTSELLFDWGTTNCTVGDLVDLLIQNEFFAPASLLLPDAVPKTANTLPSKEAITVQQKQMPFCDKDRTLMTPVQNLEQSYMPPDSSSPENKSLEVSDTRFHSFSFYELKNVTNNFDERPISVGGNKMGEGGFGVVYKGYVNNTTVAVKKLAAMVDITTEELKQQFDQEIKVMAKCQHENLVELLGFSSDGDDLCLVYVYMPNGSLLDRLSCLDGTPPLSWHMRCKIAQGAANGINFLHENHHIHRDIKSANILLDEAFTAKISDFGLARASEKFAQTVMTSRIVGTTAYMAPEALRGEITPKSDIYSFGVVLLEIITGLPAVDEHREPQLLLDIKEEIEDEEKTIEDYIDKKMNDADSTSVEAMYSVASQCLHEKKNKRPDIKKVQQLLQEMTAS
Summary of the method: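 TR-FRET endpoint (KinEASE STK1): phosphopeptide detected with cryptate antibody and tracer after EDTA quench, ratio 665/615 nm, normalized to no-inhibitor wells as % inhibition. Reaction: 0.75 nM IRAK4, […] peptide, 500 μM ATP, pH 7.0 HEPES, 120 min room temperature, after 15 min compound preincubation with enzyme.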

[3] = Homo sapiens, Monocyte, human monocytes, second part of Table 2, compounds 33-343, unit inferred

Compound	pEC50 [1, 3]	pIC50 [2]	pEC50 ([1]; Homo sapiens, Monocyte)	pEC50 ([1]; human monocytes, second part of Table 2, compounds 33-343, unit inferred)	pIC50 ([2]; second part of Table 2, compounds 33-343, unit inferred, read-out: IC50 IRAK4-HTBS)
CC(C)Nc1cc(-c2ccc3cc(C#N)cnn23)ncc1-c1nnc(N2CCC(C#N)CC2)s1 [Example 310, 7-(5-(5-(4-cyanopiperidin-1-yl)-1,3,4-thiadiazol-2-yl)-4-(isopropylamino)pyridin-2-yl)pyrrolo[1,2-b]pyridazine-3-carbonitrile]	7.59	9.18			
CC(=O)NC1CC=C(c2nnc(-c3cnc(-c4ccc5cc(C#N)cnn45)cc3NC(C)C)s2)CC1 (stereo not drawn) [Example 313, N-(4-(5-(6-(3-cyanopyrrolo[1,2-b]pyridazin-7-yl)-4-(isopropylamino)pyridin-3-yl)-1,3,4-thiadiazol-2-yl)cyclohex-3-en-1-yl)acetamide]	7.31	8.83			
CC(C)Nc1cc(-c2ccc3cc(C#N)cnn23)ncc1-c1nnc([C@H]2CC[C@H](NC(=O)C3(C)COC3)CC2)s1 [Example 314, N-((1r,4r)-4-(5-(6-(3-cyanopyrrolo[1,2-b]pyridazin-7-yl)-4-(isopropylamino)pyridin-3-yl)-1,3,4-thiadiazol-2-yl)cyclohexyl)-3-methyloxetane-3-carboxamide]	8.00	9.26			
CC(=O)N[C@H]1CC[C@H](c2nnc(-c3cnc(-c4ccc5cc(C#N)cnn45)cc3N[C@H](C)C#N)s2)CC1 [Example 316, N-((1R,4r)-4-(5-(4-(((R)-1-cyanoethyl)amino)-6-(3-cyanopyrrolo[1,2-b]pyridazin-7-yl)pyridin-3-yl)-1,3,4-thiadiazol-2-yl)cyclohexyl)acetamide]	8.28	9.23			
[2H]C([2H])([2H])C(O)(CCc1nnc(-c2cnc(-c3ccc4cc(C#N)cnn34)cc2NC(C)C)s1)C([2H])([2H])[2H] [Example 317, 7-(5-(5-(3-hydroxy-3-(methyl-d3)butyl-4,4,4-d3)-1,3,4-thiadiazol-2-yl)-4-(isopropylamino)pyridin-2-yl)pyrrolo[1,2-b]pyridazine-3-carbonitrile]	8.36	9.22			
CC(C)Nc1cc(-c2ccc3cc(C#N)cnn23)ncc1-c1nnc(CC(=O)O)s1 [Example 319, 2-(5-(6-(3-cyanopyrrolo[1,2-b]pyridazin-7-yl)-4-(isopropylamino)pyridin-3-yl)-1,3,4-thiadiazol-2-yl)acetic acid]	6.90	8.77			
CC(C)Nc1cc(-c2ccc3cc(C#N)cnn23)ncc1-c1nnc(CC(C)(C)O)s1 [Example 320, 7-(5-(5-(2-hydroxy-2-methylpropyl)-1,3,4-thiadiazol-2-yl)-4-(isopropylamino)pyridin-2-yl)pyrrolo[1,2-b]pyridazine-3-carbonitrile]		8.93	7.17		
N#Cc1cnn2c(-c3cc(NC4CCOCC4)c(-c4nnc(C56CCC(N)(CC5)CC6)s4)cn3)ccc2c1 [Example 336, 7-(5-(5-(4-aminobicyclo[2.2.2]octan-1-yl)-1,3,4-thiadiazol-2-yl)-4-((tetrahydro-2H-pyran-4-yl)amino)pyridin-2-yl)pyrrolo[1,2-b]pyridazine-3-carbonitrile]		9.15	7.96		
(S)-7-(5-(5-(2-(aminomethyl)pyrrolidine-1-carbonyl)-1,3,4-thiadiazol-2-yl)-4-(isopropylamino)pyridin-2-yl)pyrrolo[1,2-b]pyridazine-3-carbonitrile [Compound 242]				6.12	8.56
